Measured values: patent publication US4975434A, “Antiviral and anticancer cyclopentenyl cytosine” (priority 1989, dated 1990)
In brackets after ≈: the same amount, converted by molar mass. Several values for one entry are separate records, joined by “and”; a condition that tells them apart may be missing. Equal entries are not always repeated. Where two headings read alike, the source gives them in different places.

Assays:
influenza viruses = conditions: literature; cited from earlier work
several DNA viruses = conditions: literature; cited from earlier work
Rhinovirus 1A = conditions: literature; cited from earlier work
[1] = system: Herpes simplex type 1 (TK-), strain HF; conditions: literature; cited from earlier work
L1210 leukemia [2] = conditions: cited from earlier work; for increase in life span: literature values
two other RNA viruses = conditions: literature; cited from earlier work
[3] = system: Vaccinia, strain Lederle CA; assay: microbe, parasite or virus in culture; format: cell-based
[4] = system: vaccinia virus (IHD strain); format: in vivo, mouse (CD-I); conditions: Ara-A 300 mg/kg, QD 1-7 subcutaneous; PBS control 45.8
[5] = system: Herpes simplex type 2, strain MS; assay: Cytopathogenic inhibition test, HSV-2; format: cell-based; conditions: Vero cells, strain MS; for IC50: Human alphaherpesvirus 2, inhibition of virus-induced cytopathogenic effects, read-out: ID50 (the source's name)
[6] = system: Herpes simplex type 1 (TK-), strain HF; assay: microbe, parasite or virus in culture; format: cell-based
[7] = system: Herpes simplex type 1 (TK+), strain E-377; assay: Cytopathogenic inhibition test, HSV-1 TK+; format: cell-based; conditions: for IC50: Human alphaherpesvirus 1, inhibition of virus-induced cytopathogenic effects, read-out: ID50 (the source's name); for IC50 / VR (virus rating): Vero cells, strain E-377
tumors [8] = conditions: literature; cited from earlier work
CTP synthesase = assay: Inhibition of CTP synthesis (CTP synthesase); format: biochemical
MX-1 Mammary = assay: Human tumor xenograft in athymic mice, MX-1 mammary (subrenal capsule); conditions: for % tumor weight inhibition: Table IV, QD1-9, day 0 to day 11
L1210 leukemia [9] = assay: In vivo antitumor test, L1210 leukemia in mice; conditions: Table IV, QD1-9, terminated day 60
LOX Melanoma = assay: Human tumor xenograft in athymic mice, LOX melanoma (intraperitoneal); conditions: for % ILS: Table IV, QD1-9
[10] = system: MRC5 (diploid human embryonic lung cells); assay: Toxicity to MRC5 host cells (gross cell morphology) in the CMV assay; conditions: 320 μg/ml
[11] = system: Varicella-Zoster virus, isolate DM625; assay: Varicella-Zoster Virus (VZV) Plaque Reduction Assay; format: cell-based; conditions: Human alphaherpesvirus 3, 144 h, Huf cells
[12] = system: Cytomegalovirus, strain AD 169; assay: Cytomegalovirus (CMV) Yield Reduction Assay; format: cell-based
tumors [13] = assay: Antitumor activity (general statement)
[14] = system: Punta Toro virus, strain Adames; assay: microbe, parasite or virus in culture; format: cell-based, Punta Toro virus; host Vero cells
[15] = system: Influenza (Hong Kong), strain A2 /Aichi/2/68; assay: microbe, parasite or virus in culture; format: cell-based, Influenza virus; host MDCK (Madin Darby canine kidney cells)
[16] = system: Janapese Encephalitis virus, strain Najayama; assay: Antiviral test in vitro, Japanese encephalitis virus; format: cell-based, Japanese encephalitis virus; host Vero cells
[17] = system: enzyme which hydrolyzes S-adenosyl-L-homocysteine (AdoHcy); conditions: literature; cited from earlier work
[18] = system: phosphorylation and deamination; conditions: cited from earlier work
[19] = system: Vesicular Stomatitis virus, strain Indiana; format: cell-based; conditions: L929 cells, strain Indiana; two determinations
L1210 tumor cells = conditions: literature; cited from earlier work
adenosine deaminase = conditions: literature; cited from earlier work
[20] = system: quiescent normal cells; malignant cell lines; conditions: subtoxic concentrations; literature; cited from earlier work
H.Ep.-2 cells = conditions: literature; cited from earlier work
[21] = system: Yellow Fever virus, strain Asibi; assay: microbe, parasite or virus in culture; format: cell-based, Yellow Fever virus; host Vero cells
cells = conditions: literature; cited from earlier work

## Nc1ccn([C@@H]2C[C@H](CO)[C@@H](O)[C@H]2O)c(=O)n1 [Carbodine]
Influenza viruses
  antiviral activity: very effective
Several DNA viruses
  antiviral activity: Good activity
Rhinovirus 1A
  antiviral activity: Slight carbodine activity
[1]
  potency against HSV-1 TK- vs TK+: more potent against a strain of the HSV-1 virus deficient in its ability to induce thymidine kinase
L1210 leukemia [2]
  increase in life span: 82%
Two other RNA viruses
  antiviral activity: Slight carbodine activity

## Nc1ncnc2c1ncn2[C@@H]1O[C@H](CO)[C@@H](O)[C@@H]1O [Ara-A, arabinosyl adenine, reference compound]
[3]; Orthopoxvirus vaccinia, Vero, in Chlorocebus sabaeus, read-out: ID50
  IC50: 9.8 µg/mL (≈ 36.7 µM)
[3]; Vero cells, strain Lederle CA
  VR (virus rating): 3.1
[4]
  Pox Count (mean value, 20 mice): 2.8
[5]
  IC50: 49.9 µg/mL (≈ 187 µM)
  VR (virus rating): 1.3
[6]; Human alphaherpesvirus 1, Vero, in Chlorocebus sabaeus, read-out: ID50, Vero cells, strain HF, inhibition of virus-induced cytopathogenic effects, two determinations
  IC50: 2.1 µg/mL (≈ 7.86 µM)
[6]; Vero cells, strain HF, two determinations
  VR (virus rating): 3.3 and 2.9
[7]
  IC50: 13.6 µg/mL (≈ 50.9 µM)
  VR (virus rating): 1.8

## Nc1ccn([C@@H]2O[C@H](CO)[C@@H](O)[C@@H]2O)c(=O)n1 [ara-C, cytosine arabinoside]
Tumors [8]
  activity against human and animal tumors: well-known activity

## O=C1C=CN([C@@H]2O[C@H](CO)[C@@H](O)[C@H]2O)C(=O)C1 [3-Deazauridine, 3-deazauridine, reference compound]
CTP synthesase; result in words
  inhibition of CTP synthesis: powerful inhibitors of CTP synthesis
MX-1 Mammary; 3-Deazauridine 200 mg/kg
  % tumor weight inhibition: 11%
MX-1 Mammary; 3-Deazauridine 300 mg/kg
  % tumor weight inhibition: 64%
MX-1 Mammary; result in words
  activity: inactive
L1210 leukemia [9]; 3-Deazauridine 25 mg/kg
  % ILS: 72%
L1210 leukemia [9]; 3-Deazauridine 50 mg/kg
  % ILS: 61%
L1210 leukemia [9]; 3-Deazauridine 100 mg/kg
  % ILS: 80%
LOX Melanoma; 3-Deazauridine 200 mg/kg
  % ILS: 5%
LOX Melanoma; 3-Deazauridine 300 mg/kg
  % ILS: 4%
LOX Melanoma; in vivo
  tumor burden at the end of treatment: three-log10 increase in tumor burden
LOX Melanoma; result in words
  activity: inactive

## Nc1nc2c(ncn2COC(CO)CO)c(=O)[nH]1 [DHPG, 9(1,3-Dihydroxy-2-propoxymethyl)guanine, reference compound]
[10]
  Host cell toxicity (gross cell morphology): Very slightly toxic
[11]; 1.0 μg/ml
  inhibition at 1 µg/mL: 44%
[11]; 3.2 μg/ml
  inhibition at 3.2 µg/mL: 46%
[11]; 10 μg/ml
  inhibition at 10 µg/mL: 69%
[11]; 32 μg/ml
  inhibition at 32 µg/mL: 85%
[11]; 100 μg/ml
  inhibition at 100 µg/mL: 100%
[11]; 320 μg/ml
  inhibition at 320 µg/mL: 100%
[12]; Human betaherpesvirus 5, 144 h, 1.0 μg/ml, MRC5 cells, read-out: Reduction in Virus Yield
  log reduction at 1 µg/mL: 1.1
[12]; Human betaherpesvirus 5, 144 h, 10 μg/ml, MRC5 cells, read-out: Reduction in Virus Yield
  log reduction at 10 µg/mL: 3.8
[12]; Human betaherpesvirus 5, 144 h, 32 μg/ml, MRC5 cells, read-out: Reduction in Virus Yield
  log reduction at 32 µg/mL: 5.3
[12]; Human betaherpesvirus 5, 144 h, 100 μg/ml, MRC5 cells, read-out: Reduction in Virus Yield
  log reduction at 100 µg/mL: 5.3
[12]; Human betaherpesvirus 5, 144 h, 320 μg/ml, MRC5 cells, read-out: Reduction in Virus Yield
  log reduction at 320 µg/mL: 5.3
[12]; result in words
  antiviral activity: superior

## Nc1ccn([C@@H]2C=C(CO)[C@@H](O)[C@@H]2O)c(=O)n1
Tumors [13]
  antitumor activity: complete lack of antitumor activity

## Nc1ccn([C@@H]2C=C(COP(=O)(O)OP(=O)(O)OP(=O)(O)O)[C@@H](O)[C@H]2O)c(=O)n1 [triphosphate metabolite of CPE-C]
CTP synthesase; triphosphate isolated from L1210 cell extracts
  inhibition of CTP-synthesase: responsible for the inhibition of CTP-synthesase

## NC(=O)c1ncn([C@@H]2O[C@H](CO)[C@@H](O)[C@H]2O)n1 [Ribavirin, reference compound]
[14]
  VR (virus rating): 1.8
[14]; Punta Toro virus, Vero, read-out: ID50
  IC50: 20.1 µg/mL (≈ 82.3 µM)
[15]
  VR (virus rating): 3.6
[15]; MDCK, in Canis lupus familiaris, read-out: ID50
  IC50: 18.7 µg/mL (≈ 76.6 µM)
[16]; Japanese encephalitis virus, Vero, read-out: ID50
  IC50: 3 µg/mL (≈ 12.3 µM)
[16]; Vero cells, strain Najayama
  VR (virus rating): 2.4

## Nc1ccn(C2CC(CO)C(O)C2O)c(=O)n1 (stereo not drawn) ["ara"-analogue]
L1210 leukemia [2]
  increase in life span: 104%
L1210 leukemia [2]; literature, J. Pharm. Chem., 68, 668 (1979)
  activity against L1210 leukemia: activity

## Nc1nccc2c1ncn2[C@@H]1C[C@H](CO)[C@@H](O)[C@H]1O [3-Deazaaristeromycin, 3-deazaaristeromycin, reference compound]
[17]
  inhibition of AdoHcy hydrolase: very potent and specific inhibitor
[18]
  phosphorylation and deamination: resistance towards phosphorylation and deamination
[19]
  VR (virus rating): 2.1 and 3.0

## Nc1ncnc2c1ncn2[C@@H]1C[C@H](CO)[C@@H](O)[C@H]1O [C-Ado]
L1210 tumor cells
  cytotoxicity: highly cytotoxic
Adenosine deaminase
  affinity for adenosine deaminase relative to adenosine: a hundredfold lower
[20]
  effect on malignant cell lines: inhibited growth
  effect on quiescent normal cells: induced cell proliferation
L1210 leukemia [2]; literature
  activity in the in vivo mouse L1210 model: inactivity in the in vivo mouse L1210 model system
H.Ep.-2 cells
  cytotoxicity: highly cytotoxic

## Nc1nc2c(ncn2COCCO)c(=O)[nH]1 [Acyclovir]
[5]
  IC50: 5.3 µg/mL (≈ 23.5 µM)
  VR (virus rating): 4.5
[6]; result in words
  antiviral activity: inactive
[7]
  IC50: 0.7 µg/mL (≈ 3.11 µM)
  VR (virus rating): 6.7
[7]; result in words
  antiviral activity: more active that CPE-C

## c1c[se]cn1 [Selenazole, reference compound]
[21]; Vero cells, strain Asibi
  VR (virus rating): 2.4
[21]; Yellow fever virus, Vero, read-out: ID50
  IC50: 1.8 µg/mL (≈ 13.6 µM)
[21]; minimum toxic drug concentration / ID50, Vero cells
  TI (therapeutic index): 0.6

## Nc1nccc2c1ncn2[C@@H]1O[C@H](CO)[C@@H](O)[C@H]1O [3-deazaadenosine]
[18]; literature
  phosphorylation and deamination: resistance towards phosphorylation and deamination

## Nc1ncnc2c1ncn2[C@@H]1C=C(CO)[C@@H](O)[C@H]1O [Neplanocin A, 9[(1'R,2'S,3'R)-4'-Hydroxymethyl-2',3'dihydroxy-4 cyclopenten-1'-yl]adenine]
[17]
  inhibition of AdoHcy hydrolase: potent inhibitor
cells
  side effects including cytotoxicity: multiplicity of side effects including cytotoxicity
[18]; literature
  phosphorylation and deamination: readily phosphorylated
